Experiments:
[1] = tested on: post-partum mothers; assay: Depressive behaviors in post-partum mothers; format: in vivo; details: MK-0677 treatment vs vehicle control (FIG. 1)
Text: FIG. 1 is a graph depicting depressive behaviors in post-partum mothers. […] The data is shown in Figure, a bar graph depicting depressive behaviors in post-partum mothers in response to vehicle control of MK-0677 treatment. Experiments were designed to determine the effects of elevated ghrelin activity on the fetus.

[2] = tested on: offspring; assay: Anhedonia (sucrose preference) in offspring after perinatal / in-womb exposure; format: in vivo
Text: FIG. 2 is a diagram depicting the protocol for analysis of babies following birth. FIG. 3 depicts the design of the study with protocols involving vehicle control, low MK0677 or high MK0677 treatment. FIG. 4 is a graph depicting the effects of perinatal exposure to MK0677 on female (dark bar) versus male (lighter gray bar) offspring. V refers to a vehicle control. H refers to high MK0677 exposure levels. FIG. 5 is a graph depicting the effects of exposure to MK0677 in the womb on offspring. The first set of experiments was designed to determine the degree of anhedonia in offspring when raised by an MK-treated mom. Anhedonia is the inability of a subject to experience pleasure from activities usually found enjoyable. A first experiment was conducted to show the effects of perinatal exposure to MK0677 on female versus male offspring. V refers to a vehicle control. H refers to high MK0677 exposure levels. […] Additionally the foster mother had no effect. […] Another study involved determining the effects of exposure to MK0677 in the womb on offspring.

CC(C)(N)C(=O)N[C@H](COCc1ccccc1)C(=O)N1CCC2(CC1)CN(S(C)(=O)=O)c1ccccc12 [MK-0677]
maternal depressive behaviors [1]: enhanced maternal depressive behaviors
sucrose preference in offspring ([2]; offspring from mothers exposed to high MK levels (n=11) vs controls (n=12), t-test, p=0.03 (FIG. 5)): significantly lower compared to controls
degree of anhedonia in offspring: female versus male response ([2]; perinatal exposure, high MK0677 vs vehicle, female versus male offspring (FIG. 4)): no difference was seen between the response of male and female babies
degree of anhedonia in offspring: foster versus biological mother ([2]; perinatal exposure, high MK0677 vs vehicle, foster mother had no effect (FIG. 4)): an influence was observed for the biological mother
preference of sucrose solution to water (vs. 50%) ([2]; pups from MK mothers, pups from vehicle-treated mothers significantly preferred sucrose (p=0.046 vs. 50%)): did not

From patent US20160106821A1, “FUNCTIONAL GHRELIN RECEPTOR ANTAGONISM DURING PREGNANCY TO PREVENT STRESS-ASSOCIATED MENTAL ILLNESS IN OFFSPRING AND MOTHERS” (Massachusetts Institute of Technology, priority 2014, published 2016)
